This is an account of results in US11059821B2, “1H-pyrrolo[2,3-c]pyridin-7(6H)-ones and pyrazolo[3,4-c]pyridin-7(6H)-ones as inhibitors of BET proteins” (Incyte Corporation, priority 2014, dated 2021).

The experiment deals with KMS.12.BM cell line (human myeloma). Kind of experiment: KMS.12.BM cell viability assay. The experiment is classed as cell-based. As to conditions: 72 h, 3 days, ATP quantitation (Cell Titer-GLO), concentration for 50% cell death. The procedure:
KMS.12.BM cell line (human myeloma) was purchased from JCRB (Osaka, Japan) and maintained in RPMI with 10% FBS culture medium. To measure the cytotoxic activity of the compounds through ATP quantitation, the KMS. 12.BM cells are plated in the RPMI culture medium at 5000 cells/well/per 100 μL into a 96-well polystyrene clear black tissue culture plate (Greiner-bio-one through VWR, NJ), in the presence or absence of a concentration range of test compounds. After 3 days, […] Cell Titer-GLO Luminescent (Promega, Madison, Wis.) cell culture agent is added to each well for 10 minutes at room temperature to stabilize the luminescent signal. This determines the number of viable cells in culture based on quantitation of the ATP present, which signals the presence of metabolically active cells. Luminescence is measured with the Top Count 384 (Packard Bioscience through Perkin Elmer, Boston, Mass.). Compound inhibition is determined relative to cells cultured with no drug and the IC50 is reported as the compound concentration required for 50% cell death.
In general terms: ATP-based viability assays read luminescence as a measure of living cells.

In general, pIC50 refers to −log10 of the IC50, conventionally taken in molar units. Lower therefore signals a high IC50.

pIC50: −log10 of the molar value.

Regarding `Cn1cc(-c2cc(S(C)(=O)=O)cc3c2OC(c2ccccc2)C(=O)N3)c2cc[nH]c2c1=O` (stereo not shown) [Example 46, 8-(6-methyl-7-oxo-6,7-dihydro-1H-pyrrolo[2,3-c]pyridin-4-yl)-6-(methylsulfonyl)-2-phenyl-2H-1,4-benzoxazin-3(4H)-one], the pIC50 is ≥ 6.00.
The figure for `CC(=O)c1cc2c(c(-c3cn(C)c(=O)c4[nH]ccc34)c1)OC(C)(C)C(=O)N2` [Example 80, 6-acetyl-2,2-dimethyl-8-(6-methyl-7-oxo-6,7-dihydro-1H-pyrrolo[2,3-c]pyridin-4-yl)-2H-1,4-benzoxazin-3(4H)-one] is ≥ 6.00; for `CC(=O)c1cc2c(c(-c3cn(C)c(=O)c4[nH]ccc34)c1)OC(C(C)C)C(=O)N2` (stereo not shown) [Example 49, 6-acetyl-2-isopropyl-8-(6-methyl-7-oxo-6,7-dihydro-1H-pyrrolo[2,3-c]pyridin-4-yl)-2H-1,4-benzoxazin-3(4H)-one] it is ≥ 6.00.
For `CC(=O)c1cc(-c2cn(C)c(=O)c3[nH]ccc23)c2c(c1)N(C)C(=O)C(C)(C)O2` [Example 82, 6-acetyl-2,2,4-trimethyl-8-(6-methyl-7-oxo-6,7-dihydro-1H-pyrrolo[2,3-c]pyridin-4-yl)-2H-1,4-benzoxazin-3(4H)-one], the negative-log IC50 (pIC50) was ≥ 6.00.
